Assay results as given in a compilation of properties of binary mixtures (doi:10.1016/j.jct.2022.106970).

Assay: xn = mol fraction of the nth substance listed
Conditions: 92.3 kPa

CCO + CCCC[NH3+].O=C[O-]
x2 = 0
Conditions	speed of sound [m/s]	viscosity [mPa·s]
293.15 K	1160.1	1.238
298.15 K	1142.9	1.092
308.15 K	1109	0.912
313.15 K	1092.3	0.836

CCCC[NH3+].O=C[O-] + CCO
Conditions	speed of sound, 293.15 K [m/s]	speed of sound, 298.15 K [m/s]	speed of sound, 303.15 K [m/s]	speed of sound, 308.15 K [m/s]	speed of sound, 313.15 K [m/s]	viscosity, 293.15 K [mPa·s]	viscosity, 298.15 K [mPa·s]	viscosity, 303.15 K [mPa·s]	viscosity, 308.15 K [mPa·s]	viscosity, 313.15 K [mPa·s]
x1 = 0.0484	1197.4	1180.8	1164.2	1147.9	1131.6	1.91	1.672	1.512	1.37	1.247
x1 = 0.1038	1232	1215.9	1199.9	1184	1168.2	2.85	2.5	2.26	2.04	1.845
x1 = 0.1507	–	1242.7	1227	1211.4	1196	–	3.44	3.07	2.76	2.49
x1 = 0.2004	1283.9	–	1253.1	–	1222.7	5.28	–	4.15	–	3.33
x1 = 0.2564	1310.4	1295.2	–	–	1250.5	7.29	6.4	–	–	4.54
x1 = 0.2938	1326.3	1311.4	1296.6	1281.9	1267.4	9	7.92	6.99	6.2	5.53
x1 = 0.355	1350.5	1336	–	–	1292.9	12.31	10.71	–	–	7.3
x1 = 0.3886	–	1348.5	1334.2	1320	–	–	12.67	11.04	9.68	–
x1 = 0.4521	1384.5	1370.5	–	–	1328.9	19.7	16.96	–	–	11.16
x1 = 0.5005	1399.2	1385.4	–	1358.1	1344.6	24.9	21.3	–	15.84	13.79
x1 = 0.5487	1413.1	1399.5	1386	1372.7	1359.4	30.5	25.8	22	18.89	16.39
x1 = 0.5982	1426.3	1412.9	–	1386.5	1373.5	37.6	31.7	–	23.1	19.7
x1 = 0.6393	1436.7	1423.5	1410.4	–	1384.7	44.9	37.5	31.5	–	23
x1 = 0.6993	1450.9	1437.9	1425.1	–	1399.8	57.4	47.4	39.5	–	28.3
x1 = 0.749	1462.1	1449.3	1436.6	1424.1	1411.7	70.3	57.5	47.7	39.9	33.8
x1 = 0.7972	–	1459.5	1447	1434.7	1422.5	–	69.5	57.1	47.4	39.8
x1 = 0.8487	1482	–	1457.2	1445.1	1433.2	103.8	–	68.4	56.6	47.2
x1 = 0.8993	1491.4	1479.1	1467	1455	1443.2	126.4	101.1	81.9	67.2	55.7
x1 = 0.9444	–	–	1475.2	1463.4	1451.8	–	–	95.8	78.1	64.4
x1 = 1	1508.6	1496.5	1484.7	1473.1	1461.7	182.3	143.6	114.7	92.7	76.1
